Test [1] concerns mandible and tibia of micropigs. Particulars: hydrophilized implants coated with alendronate vs uncoated implants, 0 to 6 weeks, FIGS. 3 and 4. The procedure:
(§1) In order to impart hydrophilicity to the implants which were subjected to the above processes, the titanium surface was hydrophilized by plasma treatment (RFGD, O2, etc.) for 1 minutes and light radiation (ultraviolet rays, ultraviolet-ozone, etc.) for 5 minutes. Then, a 10 ml solution of 40 μg Alendronate, 40 μg Zolendronate, 1 μg BMP-2, and 40 μg Alendronate+1 μg BMP-2 was uniformly applied to the surface, and the prepared implants, in which the solution was not dried, were used in the following Examples 2, 3 and 4.

The subject of the next test is tibia of micropigs. Particulars: implants coated with rhBMP-2 and alendronate vs implants coated only with rhBMP-2, after 16 days, FIG. 6. The procedure:
as §1

The subject of another test is implant-bone interface. In words: Removal torque of coated implants just after coating and after 3-year storage. The format is in vivo. Also on record: Removal torque: unit not given here. The settings on record: for removal torque compared with other bisphosphonates and bare implant (in words): summary of Table 1, bisphosphonate-coated implants; for removal torque compared with other dental implants (in words): summary of Table 2, implants coated with both rhBMP-2 and bisphosphonate. The procedure:
In order to confirm the long-time storage stabilities of implant, osseointegration at implant-bone interface were measured via removal torque.
Each dental implant was coated with various bisphosphonates as described example 1 and its removal torque was measured just after coating step and 3-year self-storage, respectively.
Similarly, osseointegration at implant-bone interface were measured via removal torque for dental implants wherein the osteoclast activity inhibitor coating film further comprises a bone growth factor (BMP-2) as shown in Table 2.

Setting [2] is: storage period 0 year, implants coated with 10 ml solution of 40 μg bisphosphonate.
[3] abbreviates: storage period 0 year, implants coated with 10 ml solution of 40 μg bisphosphonate and 1 μg rhBMP-2.
[4] abbreviates: storage period 3 year, implants coated with 10 ml solution of 40 μg bisphosphonate.
Where [5] appears, read: storage period 3 year, implants coated with 10 ml solution of 40 μg bisphosphonate and 1 μg rhBMP-2.

`NCCCC(O)(P(=O)(O)O)P(=O)(O)O` [Alendronate]: in test [1], the “decrease in ISQ values compared to the negative control group” value is “little decrease in ISQ values or the degree of the decrease was very lower”. For the same compound, the “increase of removal torque compared to the negative control group” value in the test with tibia of micropigs is reported as “about 23%”. Besides, the Removal torque stood at 100.2 ± 8.4 in the test with implant-bone interface (setting [2]), 130.1 ± 9.7 in the test with implant-bone interface (setting [3]), 99.4 ± 11.8 in the test on implant-bone interface (setting [4]) and 129.8 ± 13.1 in the test with implant-bone interface (setting [5]). Besides, the “removal torque compared with other bisphosphonates and bare implant (in words)” value in the test with implant-bone interface was “higher removal torque”. Besides, the “removal torque compared with other dental implants (in words)” value with implant-bone interface was “higher removal torque value”.
`CCCCCN(C)CCC(O)(P(=O)(O)O)P(=O)(O)O` [Ibandronate]: the Removal torque was determined as 98.4 ± 12.1 in the test on implant-bone interface (setting [2]), 128.8 ± 13.4 in the test with implant-bone interface (setting [3]), 85.4 ± 12.5 in the test on implant-bone interface (setting [4]) and 110.8 ± 13.4 in the test with implant-bone interface (setting [5]).
For `NCCC(O)(P(=O)(O)O)P(=O)(O)O` [Pamindronate] the same measures were 99.6 ± 7.9, 127.5 ± 12.2, 84.1 ± 11.4 and 109.7 ± 12.2.
As for `O=P(O)(O)C(O)(Cc1cccnc1)P(=O)(O)O` [Resendronate], the Removal torque with implant-bone interface (setting [2]) is reported as 103.5 ± 9.3; in the test on implant-bone interface (setting [3]), 128.1 ± 11.6; with implant-bone interface (setting [4]), 83.2 ± 9.3.
Take `O=P(O)(O)C(O)(Cn1ccnc1)P(=O)(O)O` [Zolendronate]: the Removal torque in the test on implant-bone interface (setting [2]) was 104.4 ± 11.1; in the test with implant-bone interface (setting [3]), 134.4 ± 11.9; in the test on implant-bone interface (setting [4]), 103.8 ± 8.9; in the test with implant-bone interface (setting [5]), 132.5 ± 10.7. Also, in the test with implant-bone interface, the “removal torque compared with other bisphosphonates and bare implant (in words)” value is on record as “higher removal torque”. Moreover, the “removal torque compared with other dental implants (in words)” value in the test on implant-bone interface is listed as “higher removal torque value”.

The values are drawn from patent US10188770B2, “Dental implant having enhanced early stability and method for manufacturing same” (OSSTEMIMPLANT CO., LTD., priority 2014, dated 2019).
